Reference: the supplement of paper PMC11451515

Tested on: NOMO1
Assay: cell viability relative to DMSO control; higher = less cytotoxic
Settings: 48 h
Method in brief: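 Viability, reported as a per-plate percentage of DMSO wells with cell-free wells as background, came from CellTiter-Glo One luminescence. Reading took place after 48 h at 37°C. Before that, NOMO1 or SEM (500 cells/well) or P12-Ichikawa (1000 cells/well) leukemia cells, adapted for at least four passages in each medium, were seeded in 1536-well plates (5 μl) and pin-dosed with library compounds in DMSO, 47 μM to 0.79 nM over 11 threefold points.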

[1] = HPLM + 10% dialyzed FBS, 0.000781 µM
[2] = HPLM + 10% dialyzed FBS, 0.00234 µM
[3] = HPLM + 10% dialyzed FBS, 0.00702 µM
[4] = HPLM + 10% dialyzed FBS, 0.0211 µM
[5] = HPLM + 10% dialyzed FBS, 0.0632 µM
[6] = HPLM + 10% dialyzed FBS, 0.19 µM
[7] = HPLM + 10% dialyzed FBS, 0.569 µM
[8] = HPLM + 10% dialyzed FBS, 1.71 µM
[9] = HPLM + 10% dialyzed FBS, 5.12 µM
[10] = HPLM + 10% dialyzed FBS, 15.4 µM
[11] = HPLM + 10% dialyzed FBS, 46.1 µM
[12] = RPMI 5 mM glucose + 10% FBS, 0.000781 µM
[13] = RPMI 5 mM glucose + 10% FBS, 0.00234 µM
[14] = RPMI 5 mM glucose + 10% FBS, 0.00702 µM
[15] = RPMI 5 mM glucose + 10% FBS, 0.0211 µM
[16] = RPMI 5 mM glucose + 10% FBS, 0.0632 µM
[17] = RPMI 5 mM glucose + 10% FBS, 0.19 µM
[18] = RPMI 5 mM glucose + 10% FBS, 0.569 µM
[19] = RPMI 5 mM glucose + 10% FBS, 1.71 µM
[20] = RPMI 5 mM glucose + 10% FBS, 5.12 µM
[21] = RPMI 5 mM glucose + 10% FBS, 15.4 µM
[22] = RPMI 5 mM glucose + 10% FBS, 46.1 µM
[23] = RPMI 5 mM glucose + 10% dialyzed FBS, 0.000781 µM
[24] = RPMI 5 mM glucose + 10% dialyzed FBS, 0.00234 µM
[25] = RPMI 5 mM glucose + 10% dialyzed FBS, 0.00702 µM
[26] = RPMI 5 mM glucose + 10% dialyzed FBS, 0.0211 µM
[27] = RPMI 5 mM glucose + 10% dialyzed FBS, 0.0632 µM
[28] = RPMI 5 mM glucose + 10% dialyzed FBS, 0.19 µM
[29] = RPMI 5 mM glucose + 10% dialyzed FBS, 0.569 µM
[30] = RPMI 5 mM glucose + 10% dialyzed FBS, 1.71 µM
[31] = RPMI 5 mM glucose + 10% dialyzed FBS, 5.12 µM
[32] = RPMI 5 mM glucose + 10% dialyzed FBS, 15.4 µM
[33] = RPMI 5 mM glucose + 10% dialyzed FBS, 46.1 µM

OCCNC1CCCc2c1[nH]c1ccc(-c3ccccc3)cc21 (configuration not stated)
cell viability [1]: 81.8%
cell viability [2]: 93.5%
cell viability [3]: 106%
cell viability [4]: 105%
cell viability [5]: 117%
cell viability [6]: 112%
cell viability [7]: 109%
cell viability [8]: 105%
cell viability [9]: 104%
cell viability [10]: 87.1%
cell viability [11]: 11.2%
cell viability [12]: 93.4%
cell viability [13]: 103%
cell viability [14]: 109%
cell viability [15]: 105%
cell viability [16]: 111%
cell viability [17]: 96.5%
cell viability [18]: 109%
cell viability [19]: 110%
cell viability [20]: 100%
cell viability [21]: 98.6%
cell viability [22]: 14.7%
cell viability [23]: 83.7%
cell viability [24]: 97.4%
cell viability [25]: 106%
cell viability [26]: 105%
cell viability [27]: 111%
cell viability [28]: 99.4%
cell viability [29]: 104%
cell viability [30]: 96.3%
cell viability [31]: 105%
cell viability [32]: 88.6%
cell viability [33]: 22.7%

Cc1cc(-c2nnc3n2CCCCC3)c(C)n1-c1ccccc1
cell viability [1]: 116%
cell viability [2]: 122%
cell viability [3]: 136%
cell viability [4]: 131%
cell viability [5]: 121%
cell viability [6]: 125%
cell viability [7]: 148%
cell viability [8]: 132%
cell viability [9]: 117%
cell viability [10]: 120%
cell viability [11]: 108%
cell viability [12]: 112%
cell viability [13]: 112%
cell viability [14]: 109%
cell viability [15]: 122%
cell viability [16]: 115%
cell viability [17]: 120%
cell viability [18]: 118%
cell viability [19]: 114%
cell viability [20]: 117%
cell viability [21]: 116%
cell viability [22]: 110%
cell viability [23]: 115%
cell viability [24]: 120%
cell viability [25]: 110%
cell viability [26]: 114%
cell viability [27]: 124%
cell viability [28]: 113%
cell viability [29]: 116%
cell viability [30]: 121%
cell viability [31]: 111%
cell viability [32]: 122%
cell viability [33]: 120%

CN1CCN(Cc2ccc(NC(=O)Nc3ccc(Oc4cc(NC(=O)C5CC5)ncn4)cc3)cc2C(F)(F)F)CC1
cell viability [1]: 104%
cell viability [2]: 104%
cell viability [3]: 120%
cell viability [4]: 129%
cell viability [5]: 143%
cell viability [6]: 141%
cell viability [7]: 12%
cell viability [8]: 4.6%
cell viability [9]: 3.07%
cell viability [10]: 2.49%
cell viability [11]: 0.956%
cell viability [12]: 110%
cell viability [13]: 125%
cell viability [14]: 118%
cell viability [15]: 125%
cell viability [16]: 138%
cell viability [17]: 149%
cell viability [18]: 22%
cell viability [19]: 8.28%
cell viability [20]: 6.02%
cell viability [21]: 4.38%
cell viability [22]: 2.32%
cell viability [23]: 106%
cell viability [24]: 122%
cell viability [25]: 114%
cell viability [26]: 125%
cell viability [27]: 146%
cell viability [28]: 161%
cell viability [29]: 18%
cell viability [30]: 6.64%
cell viability [31]: 5.97%
cell viability [32]: 3.84%
cell viability [33]: 2.43%

C[N]1N=CC2=C1C=C(C(=C2)OC3=CC=C(NC(=O)\C4=C\C=C(\C)N(C4=O)C5=CC=C(F)C=C5)C=C3F)C6=C[NH]N=C6
cell viability [1]: 107%
cell viability [2]: 131%
cell viability [3]: 117%
cell viability [4]: 126%
cell viability [5]: 133%
cell viability [6]: 141%
cell viability [7]: 132%
cell viability [8]: 125%
cell viability [9]: 86.1%
cell viability [10]: 25.3%
cell viability [11]: 15.6%
cell viability [12]: 113%
cell viability [13]: 112%
cell viability [14]: 111%
cell viability [15]: 121%
cell viability [16]: 127%
cell viability [17]: 107%
cell viability [18]: 116%
cell viability [19]: 118%
cell viability [20]: 104%
cell viability [21]: 16.4%
cell viability [22]: 11.9%
cell viability [23]: 121%
cell viability [24]: 117%
cell viability [25]: 118%
cell viability [26]: 108%
cell viability [27]: 122%
cell viability [28]: 125%
cell viability [29]: 124%
cell viability [30]: 115%
cell viability [31]: 100%
cell viability [32]: 30%
cell viability [33]: 16.2%
